Test results reported in patent US8614242B2, “1-(heterocyclic carbonyl)-2-substituted pyrrolidines” (Bayer Intellectual Property GmbH, priority 2010, dated 2013).

How the values were obtained:
[1] = logP by HPLC on reversed-phase column (EEC Directive 79/831 Annex V.A8); format: physicochemical; settings: for logP: HPLC on reversed-phase column (C 18), 40° C., 0.1% aqueous formic acid and acetonitrile, linear gradient 10% to 90% acetonitrile
Protocol: In table 1, the logP values were determined in accordance with EEC Directive 79/831 Annex V.A8 by HPLC (High Performance Liquid Chromatography) on a reversed-phase column (C 18), using the method described below: Temperature: 40° C.; Mobile phases: 0.1% aqueous formic acid and acetonitrile; linear gradient from 10% acetonitrile to 90% acetonitrile. Calibration was carried out using unbranched alkan-2-ones (comprising 3 to 16 carbon atoms) with known logP values (determination of the logP values by the retention times using linear interpolation between two successive alkanones). lambda-max-values were determined using UV-spectra from 200 nm to 400 nm and the peak values of the chromatographic signals.

[2] = test system: Sphaerotheca fuliginea; assay: In vivo preventive test on Sphaerotheca fuliginea (cucumber); settings: 500 ppm of active ingredient, evaluated 7 days after inoculation
[3] = test system: Pyrenophora teres; assay: In vivo preventive test on Pyrenophora teres (barley); settings: 500 ppm of active ingredient, evaluated 7-9 days after inoculation
Protocol: The plants remain for 48 hours in an incubation cabinet at 22° C. and a relative atmospheric humidity of 100%.

[4] = test system: Septoria tritici; assay: In vivo preventive test on Septoria tritici (wheat); settings: 500 ppm of active ingredient, evaluated 21 days after inoculation
Description: After the spray coating has been dried, the plants are sprayed with a spore suspension of Septoria tritici.

[5] = test system: Blumeria graminis f.sp. hordei; assay: In vivo preventive test on Blumeria graminis (barley); settings: 500 ppm of active ingredient, evaluated 7 days after inoculation
Description: After the spray coating has been dried, the plants are dusted with spores of Blumeria graminis f.sp. hordei.

[6] = test system: Fusarium nivale (var. majus); assay: In vivo preventive test on Fusarium nivale (wheat); settings: 500 ppm of active ingredient, evaluated 5 days after inoculation
Description: After the spray coating has been dried, the plants are slightly injured by using a sandblast and afterwards they are sprayed with a conidia suspension of Fusarium nivale (var. majus).

[7] = test system: Leptosphaeria nodorum; assay: In vivo preventive test on Leptosphaeria nodorum (wheat); settings: evaluated 8 days after inoculation
Description: After the spray coating has been dried, the plants are sprayed with a spore suspension of Leptosphaeria nodorum.

[8] = test system: Puccinia triticina; assay: In vivo preventive test on Puccinia triticina (wheat); settings: 500 ppm of active ingredient, evaluated 8 days after inoculation
Protocol: In Vivo Preventive Test on Puccinia Triticina (Wheat)
Solvent: 49 parts by weight of N,N-dimethylacetamide
Emulsifier: 1 part by weight of alkylaryl polyglycol ether
After the spray coating has been dried, the plants are sprayed with a spore suspension of Puccinia triticina.
The test is evaluated 8 days after the inoculation.

[9] = test system: Alternaria solani; assay: In vivo preventive test on Alternaria solani (tomato); settings: evaluated 7 days after inoculation
Protocol: The plants remain for one day in an incubation cabinet at approximately 22° C. and a relative atmospheric humidity of 100%. Then the plants are placed in an incubation cabinet at approximately 20° C. and a relative atmospheric humidity of 96%.

[10] = test system: Venturia inaequalis; assay: In vivo preventive test on Venturia inaequalis (apple scab); settings: 100 ppm of active ingredient, evaluated 10 days after inoculation
Protocol: After the spray coating has dried on, the plants are inoculated with an aqueous conidia suspension of the causal agent of apple scab (Venturia inaequalis) and then remain for 1 day in an incubation cabinet at approximately 20° C. and a relative atmospheric humidity of 100%.

[11] = 100 ppm of active ingredient, listed as 1.110
[12] = 100 ppm of active ingredient, listed as 1.110 from WO-2009/153191

With `Cn1nc(C(F)F)c(C(=O)N2CCCC2Cc2ccc(F)cc2)c1F` (stereo not shown) [Example 59] the logP [1] was 2.90, the Efficacy [2] was 93% and the Efficacy [3] was 100%. It also gave an Efficacy [4] of 90%, an Efficacy [5] of 100% and an Efficacy [6] of 100%. For the same molecule, the Efficacy ([7]; 500 ppm of active ingredient) was 93% and the Efficacy [8] was 88%.

In the case of `Cn1cc(C(=O)N2CCCC2Cc2c(Cl)cccc2Cl)c(C(F)F)n1` (stereo not shown) [Example 1.110 from WO-2009/153191, [2-(2,6-dichlorobenzyl)pyrrolidin-1-yl][3-(difluoromethyl)-1-methyl-1H-pyrazol-4-yl]methanone, reference compound], the Efficacy [9, 11] is reported as “less than 30%”, the Efficacy [9, 12] is reported as 30% and the Efficacy ([9]; 500 ppm of active ingredient) is reported as 95%. For the same molecule, the Efficacy [7, 11] was “no protection”, the Efficacy [7, 12] was 0% and the Efficacy ([7]; 500 ppm of active ingredient) was 44%.

Molecule `Cc1ccc(CC2CCCN2C(=O)c2c(C(F)F)nn(C)c2F)cc1` (stereo not shown) [Example 56] has a logP [1] of 3.23, an Efficacy [2] of 81% and an Efficacy ([9]; 500 ppm of active ingredient) of 94%. It also gave an Efficacy [3] of 100%, an Efficacy [10] of 98% and an Efficacy [4] of 100%. For the same molecule, the Efficacy [5] was 100%, the Efficacy [6] was 100% and the Efficacy ([7]; 500 ppm of active ingredient) was 93%. For the same molecule, the Efficacy [8] was 89%.

Molecule `Cn1nc(C(F)F)c(C(=O)N2CCCC2Cc2ccccc2Cl)c1F` (stereo not shown) [Example 60] has a logP [1] of 3.06, an Efficacy [2] of 95% and an Efficacy ([9]; 500 ppm of active ingredient) of 100%. For the same molecule, the Efficacy [3] was 100%, the Efficacy [10] was 100% and the Efficacy [5] was 100%. It also gave an Efficacy [6] of 100%, an Efficacy ([7]; 500 ppm of active ingredient) of 100% and an Efficacy [8] of 100%.

With `Cn1nc(C(F)F)c(C(=O)N2CCCC2Cc2cccc(Cl)c2)c1F` (racemic) [Example 64] the logP [1] was 3.25, the Efficacy [2] was 93% and the Efficacy [3] was 100%. For the same molecule, the Efficacy [10] was 100%, the Efficacy [4] was 100% and the Efficacy [5] was 100%. It also gave an Efficacy [6] of 100%, an Efficacy ([7]; 500 ppm of active ingredient) of 93% and an Efficacy [8] of 100%.

Work on `Cc1cccc(CC2CCCN2C(=O)c2c(C(F)F)nn(C)c2F)c1` (stereo not shown) [Example 55, [3-(difluoromethyl)-5-fluoro-1-methyl-1H-pyrazol-4-yl][2-(3-methyl-benzyl)pyrrolidin-1-yl]methanone] yielded a chromatographic logP [1] of 3.21, an Efficacy [2] of 95% and an Efficacy [3] of 100%. It also gave an Efficacy [10] of 100%, an Efficacy [4] of 100% and an Efficacy [5] of 100%. For the same molecule, the Efficacy [6] was 100%, the Efficacy ([7]; 500 ppm of active ingredient) was 100% and the Efficacy [8] was 100%.

Molecule `Cn1nc(C(F)F)c(C(=O)N2CCCC2c2cccc(C(F)(F)F)c2)c1Cl` (stereo not shown) [Example 16] has a logP [1] of 3.21, an Efficacy [2] of 86% and an Efficacy ([9]; 500 ppm of active ingredient) of 100%. For the same molecule, the Efficacy [3] was 100%.

Molecule `Cn1nc(C(F)F)c(C(=O)N2CCCC2Cc2c(F)cccc2Cl)c1F` (racemic) [Example 67] has a logP [1] of 3.15, an Efficacy [2] of 95% and an Efficacy ([9]; 500 ppm of active ingredient) of 100%. It also gave an Efficacy [3] of 100%, an Efficacy [10] of 100% and an Efficacy [4] of 100%. It also gave an Efficacy [5] of 100%, an Efficacy [6] of 100% and an Efficacy ([7]; 500 ppm of active ingredient) of 100%. It also gave an Efficacy [8] of 94%.

With `Cn1nc(C(F)F)c(C(=O)N2CCCC2c2ccccc2Cl)c1F` (stereo not shown) [Example 6] the logP [1] was 2.90, the Efficacy [2] was 90% and the Efficacy ([9]; 500 ppm of active ingredient) was 100%. For the same molecule, the Efficacy [3] was 100%.

`Cn1nc(C(F)F)c(C(=O)N2CCCC2Cc2cccc(Cl)c2Cl)c1F` (racemic) [Example 69] gave a logP [1] of 3.64, an Efficacy [2] of 88% and an Efficacy ([9]; 500 ppm of active ingredient) of 100%. It also gave an Efficacy [3] of 100%.

`Cn1nc(C(F)F)c(C(=O)N2CCCC2Cc2ccccc2)c1F` (stereo not shown) [Example 52] gave a logP [1] of 2.84, an Efficacy ([9]; 500 ppm of active ingredient) of 100% and an Efficacy [3] of 100%. For the same molecule, the Efficacy [10] was 100%, the Efficacy [4] was 100% and the Efficacy [5] was 100%. For the same molecule, the Efficacy [6] was 100%, the Efficacy ([7]; 500 ppm of active ingredient) was 100% and the Efficacy [8] was 89%.

Molecule `Cn1nc(C(F)F)c(C(=O)N2CCCC2Cc2ccccc2F)c1F` (stereo not shown) [Example 57] has a logP [1] of 2.86, an Efficacy [2] of 94% and an Efficacy ([9]; 500 ppm of active ingredient) of 94%. For the same molecule, the Efficacy [3] was 100%, the Efficacy [10] was 100% and the Efficacy [4] was 100%. For the same molecule, the Efficacy [5] was 100%, the Efficacy [6] was 100% and the Efficacy ([7]; 500 ppm of active ingredient) was 100%. For the same molecule, the Efficacy [8] was 100%.

For `Cn1nc(C(F)F)c(C(=O)N2CCCC2c2cc(C(F)(F)F)cc(C(F)(F)F)c2)c1F` (stereo not shown) [Example 39], the logP [1] was 3.63, the Efficacy [2] was 100% and the Efficacy ([9]; 500 ppm of active ingredient) was 95%. The Efficacy [3] was 100%.

With `Cn1nc(C(F)F)c(C(=S)N2CCCC2c2ccc(Cl)cc2Cl)c1F` (stereo not shown) [Example 24] the logP [1] was 4.09, the Efficacy [2] was 95% and the Efficacy ([9]; 500 ppm of active ingredient) was 90%. For the same molecule, the Efficacy [3] was 100%.

`Cn1nc(C(F)F)c(C(=S)N2CCCC2Cc2ccccc2Cl)c1F` (racemic) [Example 61] gave a logP [1] of 3.83, an Efficacy [2] of 95% and an Efficacy ([9]; 500 ppm of active ingredient) of 100%. For the same molecule, the Efficacy [3] was 100%.

With `Cn1nc(C(F)F)c(C(=O)N2CCCC2Cc2ccc(Cl)cc2)c1F` (racemic) [Example 65] the logP [1] was 3.29, the Efficacy [2] was 95% and the Efficacy ([9]; 500 ppm of active ingredient) was 94%. It also gave an Efficacy [3] of 100%, an Efficacy [10] of 100% and an Efficacy [4] of 100%. The Efficacy [5] was 100%, the Efficacy [6] was 100% and the Efficacy ([7]; 500 ppm of active ingredient) was 100%.

Molecule `Cn1nc(C(F)F)c(C(=S)N2CCCC2Cc2c(Cl)cccc2Cl)c1F` (racemic) [Example 77] has a logP [1] of 4.06, an Efficacy [2] of 95% and an Efficacy ([9]; 500 ppm of active ingredient) of 100%. For the same molecule, the Efficacy [3] was 100%.

With `Cn1cc(C(=O)N2CCC[C@H]2COc2c(Cl)cc(Cl)cc2Cl)c(C(F)F)n1` [Example 1.006 from WO-2009/153191, [3-(difluoromethyl)-1-methyl-1H-pyrazol-4-yl]{(S)-2-[(2,4,6-trichlorophenoxy)methyl]pyrrolidin-1-yl}methanone, reference compound] the Efficacy ([7]; 250 ppm of active ingredient, listed as 1.006) was “less than 50%”, the Efficacy ([7]; 250 ppm of active ingredient, listed as 1.006 from WO-2009/153191) was 43% and the Efficacy ([7]; 500 ppm of active ingredient, listed as 1.006) was “at least 70%”. The Efficacy ([7]; 500 ppm of active ingredient, listed as 1.006 from WO-2009/153191) was 71%.

With `Cn1nc(C(F)F)c(C(=O)N2CCCC2Cc2c(Cl)cccc2Cl)c1F` (racemic) [Example 76] the logP [1] was 3.31, the Efficacy [2] was 95% and the Efficacy [3] was 100%. It also gave an Efficacy [4] of 83%, an Efficacy [5] of 100% and an Efficacy [6] of 100%.

Molecule `Cc1ccccc1CC1CCCN1C(=O)c1c(C(F)F)nn(C)c1F` (stereo not shown) [Example 54] has a logP [1] of 3.13, an Efficacy [2] of 95% and an Efficacy ([9]; 500 ppm of active ingredient) of 94%. It also gave an Efficacy [3] of 95%, an Efficacy [10] of 100% and an Efficacy [4] of 100%. It also gave an Efficacy [5] of 100%, an Efficacy [6] of 100% and an Efficacy ([7]; 500 ppm of active ingredient) of 100%. The Efficacy [8] was 100%.

In the case of `Cn1nc(C(F)F)c(C(=O)N2CCCC2c2ccc(C(F)(F)F)cc2)c1F` (stereo not shown) [Example 21], the logP [1] is reported as 3.13, the Efficacy [2] is reported as 81% and the Efficacy ([9]; 500 ppm of active ingredient) is reported as 90%. The Efficacy [3] was 95%.

With `Cn1nc(C(F)F)c(C(=O)N2CCCC2c2cc(F)cc(F)c2)c1F` (stereo not shown) [Example 10] the logP [1] was 2.70, the Efficacy [2] was 85% and the Efficacy ([9]; 500 ppm of active ingredient) was 95%. It also gave an Efficacy [3] of 100%.

`Cn1nc(C(F)F)c(C(=O)N2CCCC2c2cccc(Br)c2)c1F` (stereo not shown) [Example 34] showed a logP [1] of 2.92, an Efficacy [2] of 95% and an Efficacy ([9]; 500 ppm of active ingredient) of 95%. The Efficacy [3] was 100%.

In the case of `Cn1nc(C(F)F)c(C(=O)N2CCCC2Cc2cccc(F)c2)c1F` (stereo not shown) [Example 58], the logP [1] is reported as 2.90, the Efficacy [2] is reported as 96% and the Efficacy ([9]; 500 ppm of active ingredient) is reported as 89%. For the same molecule, the Efficacy [3] was 100%, the Efficacy [10] was 99% and the Efficacy [4] was 100%. For the same molecule, the Efficacy [5] was 100%, the Efficacy [6] was 100% and the Efficacy ([7]; 500 ppm of active ingredient) was 100%. The Efficacy [8] was 100%.

With `Cn1nc(C(F)F)c(C(=S)N2CCCC2c2cccc(C(F)(F)F)c2)c1F` (stereo not shown) [Example 18] the logP [1] was 3.59, the Efficacy [2] was 100% and the Efficacy ([9]; 500 ppm of active ingredient) was 90%. For the same molecule, the Efficacy [3] was 100%.
